For series [1], the system named is H460 non-small cell lung cancer. Briefly: Cytotoxicity test of human tumor cell line in vitro (CTG, 72 hours). In kind it is cell-based. As to conditions: Homo sapiens, NCI-H460; H460, 72 hours exposure. As to the method: IC50 values were obtained by the following methods. The cancer cells were exposed to various concentrations of compounds for 72 hours. Following by washing steps, fresh medium was added to allow the growth of the cancer cells. The cancer cells were stained to obtain cell viability. Then, comparisons were made with the medium-only control.
Specifically, the exponentially growing cells were seeded in 96-well plates at a density of 2×10^3 cells/well, and 100 μL/well. The cells were incubated for 24 hours at 37° C., in 5% CO2, in 95% air, and 100% relative humidity. Next, 99 μL of culture medium was added. The compounds were dissolved in 100% DMSO at 200 times the desired final test concentration. Upon addition of compounds, the compounds were further diluted to 4 times the desired final concentration with a complete medium. Aliquots of 1 μL of compounds at specific concentration were added to the micro-wells containing 199 μL of medium to obtain the final compound concentrations as reported. After the compounds were added, the plates were incubated for an addition 72 hours at 37° C., in 5% CO2, in 95% air, and 100% relative humidity.
The plates to be test containing the cells were equilibrated at room temperature for 30 minutes, and 100 μL of medium per well was discarded. 100 μL of CTG reagent (CelltiterGlo Kit) was added to each well. The plates were placed in a fast-shaker to shake for 2 minutes, and placed at room temperature for 30 minutes in the dark. Chemoluminescence signal values were read with Envision instrument.

Another series has as its system H460 cell line. Briefly: Hypoxia-dependent cytotoxicity experiment (2 hours exposure, air or N2, CTG). In kind it is cell-based. As to conditions: Homo sapiens, then 3 days. As to the method: To determine the effect of the compounds of the present disclosure on cancer cell proliferation, these compounds were tested for cancer cell anti-proliferative activity in a porous CTG-based assay. Cell growth was compared in the present (treatment groups) and the absence of the test compound. 10,000 cells/well/495 μL of medium was used to test the following cell line, a human tumor cell line of H460 non-small cell lung cancer. The cells were seeded on glass-inserts located in each well of 24-well plates with a density and medium as specified above. 24 hours later, the plates were divided into 2 groups, hypoxia (using N2) group and air group. TH-302 at the concentrations from 100, 10, 0.1 to 0.01 μM, and the test compounds at the concentrations from 10, 1, 0.1, 0.01, 0.001 to 0.0001 were added to each well (500 μL volume) of the treatment groups. The final DMSO concentration in each well was lower than or equal to 1%. The cells in the hypoxia group were incubated for 2 hours in an ELECTROTEK hypoxia workstation. The cells in the air group were incubated for 2 hours in a standard culture incubator. 2 hours later, the test compounds were removed from each well. The cells were washed with 500 μL of medium and incubated in 500 μL of fresh medium for 3 days. 3 days later, 200 μL of medium per well was discarded. 60 μL of CTG was added to the wells, and the plates were placed at room temperature for 15 minutes in the dark. 100 μL of medium from each well of the 24-well plates was transferred to 96-well plates. The chemiluminescence signal values were read with an M5 full-band multi-mode-function microplate reader, and integration=750 ms. The compounds of control 1 and control 2 were used as controls.

Series [2] is described as follows: Maximal tolerance dose (MTD) experiment. Conditions: for Effect on animal body weight: after intravenous injection in mice; for Gross necropsy of the surviving animals: after the recovery period; for MTD at 5 days: both sexes, ICR, mouse, in vivo, iv; for Average food intake vs normal mice: each administration group. In kind it is in vivo, ICR mice. As to the method: 18 ICR mice, 9 females/9 males, were selected for the experiment. According to gender and body weight, the mice were randomly divided into a 10 mg/kg group, a 20 mg/kg group, and a 40 mg/kg group of the S-configuration of compound 01, with 3 females/3 males in each group. By intravenous injection, the 10 mg/kg group of the S-configuration of compound 01 was administered with 1 mg/ml of the administration concentration, 10 ml/kg of the administration volume, and 10 mg/kg of the dose. The 20 mg/kg group containing the S-configuration of compound 01 was administered with 2 mg/ml of the administration concentration, 10 ml/kg of the administration volume, and 20 mg/kg of the dose. The 40 mg/kg group containing the S-configuration of compound 01 was administered with 4 mg/ml of the administration concentration, 10 ml/kg of the administration volume, and 40 mg/kg of the dose. The mice was administered once a day for 5 consecutive days, and recovered for 2 weeks after the last administration. The mice were closely observed for 2 hours after administration of the daily drug. The mice were observed twice a day in the morning and afternoon on the non-administration day. During the experiment, body weight and food intake were measured twice a week. The dead animals and all the survival animals were subjected to gross necropsy on the 14th day after the last administration. The diseased organic were grossly necropsied for histopathological examination.
18 ICR mice, 9 females/9 males, were selected for the experiment. According to gender and body weight, the mice were randomly divided into a 10 mg/kg group, a 20 mg/kg group, and a 40 mg/kg group of the R-configuration of compound 01, with 3 females/3 males in each group. By intravenous injection, the 10 mg/kg group of the R-configuration of compound 01 was administered with 1 mg/ml of the administration concentration, 10 ml/kg of the administration volume, and 10 mg/kg of the dose. The 20 mg/kg group of the R-configuration of compound 01 was administered with 2 mg/ml of the administration concentration, 10 ml/kg of the administration volume, and 20 mg/kg of the dose. The 40 mg/kg group of the R-configuration of compound 01 was administered with 4 mg/ml of the administration concentration, 10 ml/kg of the administration volume, and 40 mg/kg of the dose. The mice was administered once a day for 5 consecutive days, and recovered for 1 week after the last administration. […] To find the maximum tolerated dose, a second cycle of dosing was required. The doses were adjusted and administered for 5 consecutive days.
The mice were closely observed for 2 hours after administration of the daily drug. The mice were observed twice a day in the morning and afternoon on the non-administration day. During the experiment, body weight and food intake were measured twice a week. The dead animals and all the survival animals were subjected to gross necropsy on the 14th day after the last administration. The diseased organic were grossly necropsied for histopathological examination.

Setting [3] is: NCI-H460, H460, air, read-out: Normoxia: IC50.
The mark [4] stands for this setting: NCI-H460, H460, hypoxia (N2), read-out: N2: IC50.
The mark [5] stands for this setting: ICR mice, intravenous injection, once a day for 5 consecutive days, read-out: Maximum tolerated dose / MTD result.

Read-outs that look alike come from different tables or passages of the source. A value given as a limit tells only on which side of the number the result lay.

Data on five molecules can be found in patent US20230026163A1, “ANTICANCER COMPOUND AND MEDICAL USE THEREOF” (ASCENTAWITS PHARMACEUTICALS, LTD., priority 2019, published 2023).

For orientation: IC50 means the concentration at which inhibition is half-maximal.

Consider `O=[N+]([O-])c1c(COP(=O)(N2CC2)N2CC2)ccc2ccccc12` [Compound 03], for which the IC50 in series [1] was 806 nM; in the series with H460 cell line (setting [3]) it was 10000 nM; in the series with H460 cell line (setting [4]) it was 634 nM.
Take `CC(OP(=O)(N1CC1)N1CC1)c1ccc([N+](=O)[O-])c2ccccc12` (stereo not drawn) [Compound 26]: the IC50 in series [1] was 92 nM; in the series on H460 cell line (setting [3]) it was 37.6 nM; in the series on H460 cell line (setting [4]), below 9.8 nM.
Turning to `O=[N+]([O-])c1ccc(C(OP(=O)(N2CC2)N2CC2)C(F)(F)F)cc1` (stereo not drawn) [Control 2, reference compound], the half-maximal inhibitory concentration (IC50) in series [1] came to 659 nM; with H460 cell line (setting [3]), 15600 nM; in the series on H460 cell line (setting [4]), 7080 nM.
As for `O=[N+]([O-])c1ccc([C@@H](OP(=O)(N2CC2)N2CC2)C(F)(F)F)c2ccccc12` [R-configuration of compound 01], the “Animal death after the first 5 consecutive days” value in series [2] (10, 20 and 40 mg/kg groups, first cycle) is on record as “no animal death”. Further, the Animals died in series [2] (10/80 mg/kg group (1st cycle 10 mg/kg, 2nd cycle 80 mg/kg)) is 1 of the 6; in series [2] (20/60 mg/ml group) it was 3 of the 6; in series [2] (40/40 mg/kg group), 1 of the 6. Also, in series [2] (ICR mice, intravenous injection, once a day for 5 consecutive days), the “Maximum tolerated dose / MTD result” value fell in the range of 20 to 40 mg/kg. Further, the “Effect on animal body weight” value in series [2] is given as “increased slowly”. For the same molecule, the “Gross necropsy of the surviving animals” value in series [2] is “on obvious gross pathological changes”. Besides, the MTD at 5 days in series [2] (ICR mice, intravenous injection, first cycle, read-out: Maximum tolerated dose) is above 40 mg/kg; in series [2] (setting [5]), 20 to 40 mg/kg; in series [2] (ICR mice, intravenous injection, second cycle, read-out: Maximum tolerated dose), below 40 mg/kg. Besides, the “Average food intake vs normal mice” value in series [2] is “no significant difference”. Moreover, the “Clinical symptoms after administration” value was “in good condition” in series [2] (first cycle, 10/80 mg/kg group); “unsteady gait” in series [2] (first cycle, 20/60 mg/kg group); “intermittent gait unsteady, accelerated breathing, and increased spontaneous activity” in series [2] (first cycle, 40/40 mg/kg); “abnormal gait, decreased muscle tension, decreased spontaneous activity, irregular breathing, unsteady gait, accelerated breathing, erect hair, spasm, deepened breathing, prone, and arched back” in series [2] (second cycle, 10/80 mg/kg); “intermittent deepened breathing, decreased spontaneous activity, unsteady gait, irregular breathing, increased spontaneous activity, accelerated breathing, unsteady gait, and prone” in series [2] (second cycle, 20/60 mg/kg); “intermittent unsteady gait, deepened breathing, accelerated breathing, increased spontaneous activity, and abnormal gait” in series [2] (second cycle, 40/40 mg/kg).
Take `O=[N+]([O-])c1ccc([C@H](OP(=O)(N2CC2)N2CC2)C(F)(F)F)c2ccccc12` [S-configuration of compound 01]: the “Clinical symptoms after administration” value in series [2] (10 mg/kg group and 20 mg/kg group) is on record as “in good condition”. Also, in series [2] (40 mg/kg group), the “Clinical symptoms after administration” value is “unsteady gait, deepened breathing, accelerated breathing, and decreased spontaneous activity”. Moreover, the Animals died in series [2] (40 mg/kg group, i.v., 5 consecutive days) was 3 of the 6. For the same molecule, in series [2], the “Effect on animal body weight” value is “increased slowly”, the “Gross necropsy of the surviving animals” value is recorded as “on obvious gross pathological changes” and the “Average food intake vs normal mice” value is “no significant difference”. Also, the MTD at 5 days in series [2] (setting [5]) worked out at 20 mg/kg.
